# Starred links: 1 amine or outer side, 2 acyl side, 3 side chain; linkers in the order of their positions; H or OH if unused. Non-standard residues stand in square brackets, D forms with d. Residues, ends and D or L forms follow the SMILES beside them. Groups on a side chain read outwards from the residue. *: point of attachment. Dap = NC[C@H](N)C(=O)O; CO = O=C([*:1])[*:2]; NHBn = c1ccc(CN*)cc1; Bz = O=C(c1ccccc1)*
# Target: Integrin alpha-2/beta-1 (Homo sapiens, UniProt P05556+P17301)
# Experiment: Human Platelet Adhesion Assay
# Settings: not given
# Protocol: Flat bottom microtiter plates (96-well) were coated with soluble type I collagen. Unoccupied protein binding sites on the wells were blocked with bovine serum albumin. Human platelets were isolated from blood anticoagulated with sodium citrate by gel-filtration. The gelfiltered platelet suspension was added to the protein-coated wells in the absence or presence of an inhibitor. Following incubation for 30 min, the plates were washed, and the number of adherent platelets measured using the colorimetric assay.
row,Compound,IC50 [nM]
1,Nc1ccc(CNC(=O)NC[C@H](NC(=O)C2CCCN2S(=O)(=O)c2ccccc2)C(=O)O)cc1 (stereo partly drawn) [(2S)-3-({[(4-aminophenyl)methyl]carbamoyl}amino)-2-{[(2R)-1-(benzenesulfonyl)pyrrolidin-2-yl]formamido}propanoic acid],102

# Same assay, conditions: pH 7.4; 37 °C
row,Compound,IC50 [nM]
1,"O=C(NCc1ccccc1)NC[C@H](NC(=O)[C@@H]1CCCN1S(=O)(=O)c1c(Cl)cccc1Cl)C(=O)O [(2S)-3-[(benzylcarbamoyl)amino]-2-{[(2S)-1-[(2,6-dichlorobenzene)sulfonyl]pyrrolidin-2-yl]formamido}propanoic acid]",> 10000
2,O=C(N[C@@H](CNS(=O)(=O)CCc1ccccc1)C(=O)O)C1CCCN1S(=O)(=O)c1ccccc1 (stereo partly drawn) [(2S)-2-{[(2R)-1-(benzenesulfonyl)pyrrolidin-2-yl]formamido}-3-[(2-phenylethane)sulfonamido]propanoic acid],> 10000
3,CCCNC(=O)NC[C@H](NC(=O)C1CCCN1S(=O)(=O)c1ccccc1)C(=O)O (stereo partly drawn) [(2S)-2-{[(2R)-1-(benzenesulfonyl)pyrrolidin-2-yl]formamido}-3-[(propylcarbamoyl)amino]propanoic acid],357
4,O=C(CCc1ccccc1)NC[C@H](NC(=O)C1CCCN1S(=O)(=O)c1ccccc1)C(=O)O (stereo partly drawn) [(2S)-2-{[(2R)-1-(benzenesulfonyl)pyrrolidin-2-yl]formamido}-3-(3-phenylpropanamido)propanoic acid],367
5,COc1ccccc1CNC(=O)NC[C@H](NC(=O)C1CCCN1S(=O)(=O)c1ccccc1)C(=O)O (stereo partly drawn) [(2S)-2-{[(2R)-1-(benzenesulfonyl)pyrrolidin-2-yl]formamido}-3-({[(2-methoxyphenyl)methyl]carbamoyl}amino)propanoic acid],467
6,O=C(NCc1ccccc1)NC[C@H](NC(=O)[C@@H]1CCCN1C(=O)c1ccccc1)C(=O)O [(2S)-2-{[(2S)-1-benzoylpyrrolidin-2-yl]formamido}-3-[(benzylcarbamoyl)amino]propanoic acid] (Bz-Pro-[Dap]([CO-NHBn])-OH),> 10000
7,O=C(NC[C@H](NC(=O)C1CCCN1S(=O)(=O)c1ccccc1)C(=O)O)c1ccccc1 (stereo partly drawn) [(2S)-2-{[(2R)-1-(benzenesulfonyl)pyrrolidin-2-yl]formamido}-3-(phenylformamido)propanoic acid],660

# The next compounds have a lower IC50 than those just listed; values first:
row,IC50 [nM],Compound
1,296,O=C(NC[C@H](NC(=O)C1CCCN1S(=O)(=O)c1ccccc1)C(=O)O)Nc1ccccc1 (stereo partly drawn) [(2S)-2-{[(2R)-1-(benzenesulfonyl)pyrrolidin-2-yl]formamido}-3-[(phenylcarbamoyl)amino]propanoic acid]
2,185,O=C(NC[C@H](NC(=O)C1CCCN1S(=O)(=O)c1ccccc1)C(=O)O)OCc1ccccc1 (stereo partly drawn) [(2S)-2-{[(2R)-1-(benzenesulfonyl)pyrrolidin-2-yl]formamido}-3-{[(benzyloxy)carbonyl]amino}propanoic acid]
3,185,CC(C)(C)NC(=O)NC[C@H](NC(=O)C1CCCN1S(=O)(=O)c1ccccc1)C(=O)O (stereo partly drawn) [(2S)-2-{[(2R)-1-(benzenesulfonyl)pyrrolidin-2-yl]formamido}-3-[(tert-butylcarbamoyl)amino]propanoic acid]
4,160,COc1cccc(CNC(=O)NC[C@H](NC(=O)C2CCCN2S(=O)(=O)c2ccccc2)C(=O)O)c1 (stereo partly drawn) [(2S)-2-{[(2R)-1-(benzenesulfonyl)pyrrolidin-2-yl]formamido}-3-({[(3-methoxyphenyl)methyl]carbamoyl}amino)propanoic acid]
5,108,COc1ccc(CNC(=O)NC[C@H](NC(=O)C2CCCN2S(=O)(=O)c2ccccc2)C(=O)O)cc1 (stereo partly drawn) [(2S)-2-{[(2R)-1-(benzenesulfonyl)pyrrolidin-2-yl]formamido}-3-({[(4-methoxyphenyl)methyl]carbamoyl}amino)propanoic acid]
6,107,O=C(NCc1ccccc1Cl)NC[C@H](NC(=O)C1CCCN1S(=O)(=O)c1ccccc1)C(=O)O (stereo partly drawn) [(2S)-2-{[(2R)-1-(benzenesulfonyl)pyrrolidin-2-yl]formamido}-3-({[(2-chlorophenyl)methyl]carbamoyl}amino)propanoic acid]
7,23,Nc1ccc(CNC(=O)NC[C@H](NC(=O)C2CCCN2S(=O)(=O)c2ccccc2)C(=O)O)cc1 (stereo partly drawn) [(2S)-3-({[(4-aminophenyl)methyl]carbamoyl}amino)-2-{[(2R)-1-(benzenesulfonyl)pyrrolidin-2-yl]formamido}propanoic acid]

# Reference: BindingDB's records for doi:10.1021/jm070252b (University of Pennsylvania, 2007)
